Assay results reported in PubChem BioAssay AID330 (DTP/NCI, 2004).
Several values for one entry are separate records, joined by “and”; a condition that tells them apart may be missing. Identical values can stand only once. Toxic doses and inconclusive results are not listed. Rule for the calls: active = survival T/C of 150% or more; inactive = T/C below 125% in these data.

Test system: P388 leukemia ip, CD2F1 mice, survival T/C
Test: NCI In Vivo Anticancer Drug Screen. Data for tumor model P388 Leukemia (intraperitoneal) in CD2F1 (CDF1) mice
Details: endpoint: median survival time, higher = longer survival
Procedure, shortened: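 Mice carrying the transplanted tumor received test compound or vehicle. Survival was recorded in each group, and the value is the treated-group measurement divided by that of the vehicle-treated control group.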

[1] = dose: 50.0 mg/kg/injection, schedule: Q01DX005 (ip), vehicle: Klucel (hydroxypropylcellulose) (HPC)
[2] = dose: 100.0 mg/kg/injection, schedule: Q01DX005 (ip), vehicle: Klucel (hydroxypropylcellulose) (HPC)
[3] = dose: 200.0 mg/kg/injection, schedule: Q01DX005 (ip), vehicle: Klucel (hydroxypropylcellulose) (HPC)
[4] = dose: 60.0 mg/kg/injection, schedule: Q01DX005 (ip), vehicle: saline with Tween-80
[5] = dose: 120.0 mg/kg/injection, schedule: Q01DX005 (ip), vehicle: saline with Tween-80
[6] = dose: 240.0 mg/kg/injection, schedule: Q01DX005 (ip), vehicle: saline with Tween-80
[7] = dose: 100.0 mg/kg/injection, schedule: Q01DX001 (ip), vehicle: saline with Tween-80
[8] = dose: 400.0 mg/kg/injection, schedule: Q01DX001 (ip), vehicle: saline with Tween-80
[9] = dose: 50.0 mg/kg/injection, schedule: Q01DX009 (ip), vehicle: other
[10] = dose: 100.0 mg/kg/injection, schedule: Q01DX009 (ip), vehicle: other
[11] = dose: 200.0 mg/kg/injection, schedule: Q01DX009 (ip), vehicle: other
[12] = dose: 50.0 mg/kg/injection, schedule: Q01DX009 (ip), vehicle: Klucel (hydroxypropylcellulose) (HPC)
[13] = dose: 100.0 mg/kg/injection, schedule: Q01DX009 (ip), vehicle: Klucel (hydroxypropylcellulose) (HPC)
[14] = dose: 200.0 mg/kg/injection, schedule: Q01DX009 (ip), vehicle: Klucel (hydroxypropylcellulose) (HPC)
[15] = dose: 50.0 mg/kg/injection, schedule: Q01DX005 (ip), vehicle: saline with Tween-80
[16] = dose: 100.0 mg/kg/injection, schedule: Q01DX005 (ip), vehicle: saline with Tween-80
[17] = dose: 200.0 mg/kg/injection, schedule: Q01DX005 (ip), vehicle: saline with Tween-80
[18] = dose: 50.0 mg/kg/injection, schedule: Q01DX009 (ip), vehicle: saline with Tween-80
[19] = dose: 100.0 mg/kg/injection, schedule: Q01DX009 (ip), vehicle: saline with Tween-80
[20] = dose: 200.0 mg/kg/injection, schedule: Q01DX009 (ip), vehicle: saline with Tween-80

Measured: T/C

C=C1C[C@]23C[C@H](O)[C@]4(O)[C@@]5(C)C[C@H](O)C[C@]46C(C2[C@@H]1[C@@H](OC(=O)/C(C)=C/C)[C@@H](OC(=O)/C(C)=C/C)[C@H]36)N(C)C5 (stereo not given in full)
inactive: dose: 0.5 mg/kg/injection, schedule: Q01DX005 (ip), vehicle: saline + alcohol 102 % of control | dose: 1.0 mg/kg/injection, schedule: Q01DX005 (ip), vehicle: saline + alcohol 105 % of control and 106 % of control | dose: 2.0 mg/kg/injection, schedule: Q01DX005 (ip), vehicle: saline + alcohol 105 % of control and 109 % of control | dose: 4.0 mg/kg/injection, schedule: Q01DX005 (ip), vehicle: saline + alcohol 103 % of control and 109 % of control | dose: 8.0 mg/kg/injection, schedule: Q01DX005 (ip), vehicle: saline + alcohol 103 % of control

CCCCN(CCCC)CCCNC(c1ccc(N(C)C)cc1)c1ccc(N(C)C)cc1
inactive: dose: 25.0 mg/kg/injection, schedule: Q01DX005 (ip), vehicle: Klucel (hydroxypropylcellulose) (HPC) 98 % of control | [1] 104 % of control | [2] 98 % of control | [3] 102 % of control

Cc1ccc(-c2c(C)c3c(c(C)c2-c2ccc(C)cc2)-c2ccccc2C3=O)cc1
inactive: dose: 100.0 mg/kg/injection, schedule: Q04DX002 (ip), vehicle: saline 100 % of control | dose: 200.0 mg/kg/injection, schedule: Q04DX002 (ip), vehicle: saline 95 % of control

N#CC(C#N)=C(O)/C(=C/c1ccc(Cl)cc1Cl)NC(=O)c1ccccc1
inactive: [4] 107 % of control | [5] 98 % of control | [6] 100 % of control

C/C(=N\N=C(\[Se])N1CC(C)OC(C)C1)c1ccccn1 (stereo not given)
inactive: dose: 10.0 mg/kg/injection, schedule: Q04DX003 (ip), vehicle: saline with Tween-80 100 % of control | dose: 25.0 mg/kg/injection, schedule: Q04DX003 (ip), vehicle: saline with Tween-80 106 % of control | dose: 50.0 mg/kg/injection, schedule: Q04DX003 (ip), vehicle: saline with Tween-80 107 % of control | dose: 100.0 mg/kg/injection, schedule: Q04DX003 (ip), vehicle: saline with Tween-80 109 % of control | dose: 200.0 mg/kg/injection, schedule: Q04DX003 (ip), vehicle: saline with Tween-80 121 % of control

OCCOc1ccc2ccccc2c1-c1c(OCCOc2ccc3ccccc3c2-c2c(OCCO)ccc3ccccc23)ccc2ccccc12
inactive: [7] 96 % of control | dose: 200.0 mg/kg/injection, schedule: Q01DX001 (ip), vehicle: saline with Tween-80 88 % of control | [8] 92 % of control

COC1C/C(=N\O)C2OC(c3ccccc3)OCC2O1 (stereo not given)
inactive: dose: 1.56 mg/kg/injection, schedule: Q01DX009 (ip), vehicle: other 96 % of control | dose: 3.13 mg/kg/injection, schedule: Q01DX009 (ip), vehicle: other 104 % of control | dose: 6.25 mg/kg/injection, schedule: Q01DX009 (ip), vehicle: other 106 % of control | dose: 12.5 mg/kg/injection, schedule: Q01DX009 (ip), vehicle: other 92 % of control | dose: 25.0 mg/kg/injection, schedule: Q01DX009 (ip), vehicle: other 101 % of control and 94 % of control | [9] 99 % of control | [10] 100 % of control | [11] 98 % of control | dose: 400.0 mg/kg/injection, schedule: Q01DX009 (ip), vehicle: other 100 % of control

CCN(CC)P(Cl)(C1=C(Cl)C(=O)C(C#N)=C(C#N)C1=O)(N(CC)CC)N(CC)CC
inactive: [7] 89 % of control | [8] 89 % of control

CC1(C)NC(=O)N(CCCCCCN2C(=O)NC(C)(C)C2=O)C1=O
inactive: [1] 94 % of control | [2] 102 % of control | dose: 400.0 mg/kg/injection, schedule: Q01DX005 (ip), vehicle: Klucel (hydroxypropylcellulose) (HPC) 90 % of control

Cc1ccc(-c2sc3ccccc3c(=O)c2CCl)cc1CO
inactive: [4] 100 % of control | [5] 95 % of control | [6] 90 % of control

Cc1cc(N)nc(=O)n1COCCOCc1ccccc1
inactive: dose: 100.0 mg/kg/injection, schedule: Q04DX002 (ip), vehicle: Klucel (hydroxypropylcellulose) (HPC) 103 % of control | dose: 200.0 mg/kg/injection, schedule: Q04DX002 (ip), vehicle: Klucel (hydroxypropylcellulose) (HPC) 106 % of control | dose: 400.0 mg/kg/injection, schedule: Q04DX002 (ip), vehicle: Klucel (hydroxypropylcellulose) (HPC) 98 % of control

CC(CCc1ccc2c(c1)OCO2)NCC(O)c1ccc(O)c(C(N)=O)c1 (stereo not given)
inactive: [12] 93 % of control | [13] 94 % of control | [14] 100 % of control

O=c1c(Cc2c(-c3ccccc3)[nH]c3ccccc23)coc2ccccc12
inactive: [4] 90 % of control | [5] 89 % of control

C1CCc2nc3c(nc2C1)CCCC3
inactive: [15] 101 % of control | [16] 101 % of control | [17] 92 % of control

O=C1NC(=O)C2CCCc3cccc1c32 (stereo not given)
inactive: [18] 100 % of control | [19] 97 % of control | [20] 110 % of control

CC(C)(C)OOC(=O)/C=C/c1ccccc1
inactive: [4] 101 % of control | [5] 108 % of control | [6] 92 % of control

Cn1cnc2cc(N3CCOCC3)c([N+](=O)[O-])cc2c1=O
inactive: dose: 100.0 mg/kg/injection, schedule: Q04DX003 (ip), vehicle: Klucel (hydroxypropylcellulose) (HPC) 105 % of control | dose: 200.0 mg/kg/injection, schedule: Q04DX003 (ip), vehicle: Klucel (hydroxypropylcellulose) (HPC) 112 % of control | dose: 400.0 mg/kg/injection, schedule: Q04DX003 (ip), vehicle: Klucel (hydroxypropylcellulose) (HPC) 95 % of control

O=C(NNc1c(F)c(F)c(C(F)(F)F)c(F)c1F)c1ccccc1
inactive: [1] 98 % of control | [2] 100 % of control | [3] 91 % of control

COc1ccc2c(c1)C1(C)c3cc(OC)ccc3OC1(C)O2 (stereo not given)
inactive: [9] 103 % of control | [10] 95 % of control | [11] 103 % of control

c1csc(-c2n[se]c(-c3cccs3)n2)c1
inactive: dose: 12.5 mg/kg/injection, schedule: Q04DX002 (ip), vehicle: saline with Tween-80 99 % of control | dose: 25.0 mg/kg/injection, schedule: Q04DX002 (ip), vehicle: saline with Tween-80 100 % of control

CCOC(=O)c1n[nH]c(=S)[nH]c1=O
inactive: [1] 104 % of control | [2] 108 % of control | [3] 101 % of control

CCOC(=O)C=C1CCC2(CC1)SCCS2
inactive: dose: 100.0 mg/kg/injection, schedule: Q01DX001 (ip), vehicle: other 104 % of control | dose: 200.0 mg/kg/injection, schedule: Q01DX001 (ip), vehicle: other 114 % of control | dose: 400.0 mg/kg/injection, schedule: Q01DX001 (ip), vehicle: other 117 % of control

C1=CC(=CN2CCc3ccccc3C2)C=C1
inactive: dose: 60.0 mg/kg/injection, schedule: Q01DX005 (ip), vehicle: Klucel (hydroxypropylcellulose) (HPC) 101 % of control | dose: 120.0 mg/kg/injection, schedule: Q01DX005 (ip), vehicle: Klucel (hydroxypropylcellulose) (HPC) 102 % of control | dose: 240.0 mg/kg/injection, schedule: Q01DX005 (ip), vehicle: Klucel (hydroxypropylcellulose) (HPC) 103 % of control

CC(C)CC(NC(=O)OCc1ccccc1)C(=O)NC(Cc1c[nH]c2ccccc12)C(=O)O (stereo not given)
inactive: [15] 100 % of control | [16] 103 % of control | [17] 102 % of control

Cc1ccc(C)c2c3c([nH]c12)-c1ccccc1CC3
inactive: [18] 103 % of control | [19] 107 % of control | [20] 103 % of control

CC(NC(=O)C(N)Cc1ccc(O)cc1)C(=O)NCC(=O)N(C)C(Cc1ccccc1)C(=O)NC(CO)CCS(C)=O (stereo not given)
inactive: dose: 50.0 mg/kg/injection, schedule: Q01DX009 (ip), vehicle: saline 115 % of control | dose: 100.0 mg/kg/injection, schedule: Q01DX009 (ip), vehicle: saline 95 % of control | dose: 200.0 mg/kg/injection, schedule: Q01DX009 (ip), vehicle: saline 105 % of control

CSCC(C)C(N)C(=O)O (stereo not given)
inactive: [12] 109 % of control | [13] 105 % of control | [14] 100 % of control

CC1CCC(C(C)C)C(OC(=O)c2cc[n+](C)cc2)C1 (stereo not given)
inactive: [1] 107 % of control | [2] 98 % of control
